According to PubChem BioAssay (NCI):
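Step 1: Grow cells in 96-well plates. Step 2: Expose to compound for 48 hours at 5 concentrations. Step 3: Interpolate endpoints linearly; if unreached, use highest concentration. GI50: concentration for 50% inhibition of growth. At the TGI there is no net growth.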

Legend:
Test in all cases: inhibition of tumour cell growth, NCI panel, 48 h
RXF 393 renal = system: RXF 393 renal
CCRF-CEM leukemia = system: CCRF-CEM leukemia
NCI-H460 lung = system: NCI-H460 lung
OVCAR-8 ovarian = system: OVCAR-8 ovarian
IGROV1 ovarian = system: IGROV1 ovarian
UO-31 renal = system: UO-31 renal
U251 CNS = system: U251 CNS
UACC-257 melanoma = system: UACC-257 melanoma
COLO 205 colon = system: COLO 205 colon
NCI-H522 lung = system: NCI-H522 lung
HCC-2998 colon = system: HCC-2998 colon
PC-3 prostate = system: PC-3 prostate
DU-145 prostate = system: DU-145 prostate
SW-620 colon = system: SW-620 colon
SK-MEL-2 melanoma = system: SK-MEL-2 melanoma
SNB-19 CNS = system: SNB-19 CNS
SK-MEL-5 melanoma = system: SK-MEL-5 melanoma
SN12C renal = system: SN12C renal
UACC-62 melanoma = system: UACC-62 melanoma
SNB-75 CNS = system: SNB-75 CNS
HCT-116 colon = system: HCT-116 colon
A549 NSCLC = system: A549 NSCLC
SF-295 CNS = system: SF-295 CNS
MOLT-4 leukemia = system: MOLT-4 leukemia
BT-549 breast = system: BT-549 breast
NCI/ADR-RES ovarian = system: NCI/ADR-RES ovarian
786-0 renal = system: 786-0 renal
OVCAR-4 ovarian = system: OVCAR-4 ovarian
T-47D breast = system: T-47D breast
RPMI-8226 leukemia = system: RPMI-8226 leukemia
LOX IMVI melanoma = system: LOX IMVI melanoma
OVCAR-5 ovarian = system: OVCAR-5 ovarian
ACHN renal = system: ACHN renal
A498 renal = system: A498 renal
MDA-MB-231 breast = system: MDA-MB-231 breast
HT29 colon = system: HT29 colon
CAKI-1 renal = system: CAKI-1 renal
HCT-15 colon = system: HCT-15 colon
MDA-MB-435 = system: MDA-MB-435
OVCAR-3 ovarian = system: OVCAR-3 ovarian
TK-10 renal = system: TK-10 renal
MCF7 breast = system: MCF7 breast
HOP-62 NSCLC = system: HOP-62 NSCLC
SF-539 CNS = system: SF-539 CNS
SK-OV-3 ovarian = system: SK-OV-3 ovarian
EKVX NSCLC = system: EKVX NSCLC
HL-60(TB) leukemia = system: HL-60(TB) leukemia
NCI-H23 lung = system: NCI-H23 lung
NCI-H226 lung = system: NCI-H226 lung
K-562 leukemia = system: K-562 leukemia
MALME-3M melanoma = system: MALME-3M melanoma
SF-268 CNS = system: SF-268 CNS
KM12 colon = system: KM12 colon
M14 melanoma = system: M14 melanoma
SR leukemia = system: SR leukemia
SK-MEL-28 melanoma = system: SK-MEL-28 melanoma
HS 578T breast = system: HS 578T breast

O=C1OCC2=C1C(c1cccc(Cl)c1)c1cc3c(cc1N2CCO)OCCO3 (centres undefined)
GI50 (RXF 393 renal): 29.4 nM | TGI (RXF 393 renal): 174 nM | GI50 (CCRF-CEM leukemia): 112 nM | TGI (CCRF-CEM leukemia): > 100000 nM | GI50 (NCI-H460 lung): 49.4 nM | TGI (NCI-H460 lung): 4590 nM | GI50 (OVCAR-8 ovarian): 176 nM | TGI (OVCAR-8 ovarian): 4330 nM | GI50 (IGROV1 ovarian): 79.2 nM | TGI (IGROV1 ovarian): > 47400 nM | GI50 (UO-31 renal): 73.6 nM | TGI (UO-31 renal): > 69400 nM | GI50 (U251 CNS): 54.2 nM | TGI (U251 CNS): 7140 nM | GI50 (UACC-257 melanoma): 36.4 nM | TGI (UACC-257 melanoma): 28200 nM | GI50 (COLO 205 colon): 97.1 nM | TGI (COLO 205 colon): 651 nM | GI50 (NCI-H522 lung): 20.4 nM | TGI (NCI-H522 lung): 60.8 nM | GI50 (HCC-2998 colon): 157 nM | TGI (HCC-2998 colon): 2910 nM | GI50 (PC-3 prostate): 50.2 nM | TGI (PC-3 prostate): 13100 nM | GI50 (DU-145 prostate): 152 nM | TGI (DU-145 prostate): 1310 nM | GI50 (SW-620 colon): 40 nM | TGI (SW-620 colon): > 100000 nM | GI50 (SK-MEL-2 melanoma): 33.5 nM | TGI (SK-MEL-2 melanoma): 607 nM | GI50 (SNB-19 CNS): 74.7 nM | TGI (SNB-19 CNS): > 100000 nM | GI50 (SK-MEL-5 melanoma): 36 nM | TGI (SK-MEL-5 melanoma): 507 nM | GI50 (SN12C renal): 270 nM | TGI (SN12C renal): 46300 nM | GI50 (UACC-62 melanoma): 36.7 nM | TGI (UACC-62 melanoma): > 70000 nM | GI50 (SNB-75 CNS): 41.9 nM | TGI (SNB-75 CNS): 39300 nM | GI50 (HCT-116 colon): 56.6 nM | TGI (HCT-116 colon): 4010 nM | GI50 (A549 NSCLC): 132 nM | TGI (A549 NSCLC): 4350 nM | GI50 (SF-295 CNS): 40.3 nM | TGI (SF-295 CNS): 3250 nM | GI50 (MOLT-4 leukemia): 348 nM | TGI (MOLT-4 leukemia): > 100000 nM | GI50 (BT-549 breast): 147 nM | TGI (BT-549 breast): 11800 nM | GI50 (NCI/ADR-RES ovarian): 63.1 nM | TGI (NCI/ADR-RES ovarian): 373 nM | GI50 (786-0 renal): 64 nM | TGI (786-0 renal): 5500 nM | GI50 (OVCAR-4 ovarian): 118 nM | TGI (OVCAR-4 ovarian): > 100000 nM | GI50 (T-47D breast): 67.7 nM | TGI (T-47D breast): > 100000 nM | GI50 (RPMI-8226 leukemia): 129 nM | TGI (RPMI-8226 leukemia): 19200 nM | GI50 (LOX IMVI melanoma): 68.9 nM | TGI (LOX IMVI melanoma): 17900 nM | GI50 (OVCAR-5 ovarian): 539 nM | TGI (OVCAR-5 ovarian): > 100000 nM | GI50 (ACHN renal): 73.3 nM | TGI (ACHN renal): > 100000 nM | GI50 (A498 renal): 26.5 nM | TGI (A498 renal): 580 nM | GI50 (MDA-MB-231 breast): 334 nM | TGI (MDA-MB-231 breast): 4260 nM | GI50 (HT29 colon): 40.2 nM | TGI (HT29 colon): 282 nM | GI50 (CAKI-1 renal): 69.7 nM | TGI (CAKI-1 renal): > 55600 nM | GI50 (HCT-15 colon): 73 nM | TGI (HCT-15 colon): > 100000 nM | GI50 (MDA-MB-435): 23.6 nM | TGI (MDA-MB-435): 62.6 nM | GI50 (OVCAR-3 ovarian): 25.1 nM | TGI (OVCAR-3 ovarian): 61.8 nM | GI50 (TK-10 renal): 120 nM | TGI (TK-10 renal): 37300 nM | GI50 (MCF7 breast): 37.9 nM | TGI (MCF7 breast): 97600 nM | GI50 (HOP-62 NSCLC): 78.7 nM | TGI (HOP-62 NSCLC): 40500 nM | GI50 (SF-539 CNS): 46.7 nM | TGI (SF-539 CNS): 975 nM | GI50 (SK-OV-3 ovarian): 54.8 nM | TGI (SK-OV-3 ovarian): 1960 nM | GI50 (EKVX NSCLC): 1540 nM | TGI (EKVX NSCLC): > 89800 nM | GI50 (HL-60(TB) leukemia): 47.2 nM | TGI (HL-60(TB) leukemia): 346 nM | GI50 (NCI-H23 lung): 97 nM | TGI (NCI-H23 lung): > 57200 nM | GI50 (NCI-H226 lung): 84.5 nM | TGI (NCI-H226 lung): 1850 nM | GI50 (K-562 leukemia): 48.1 nM | TGI (K-562 leukemia): > 45700 nM | GI50 (MALME-3M melanoma): 55.1 nM | TGI (MALME-3M melanoma): > 100000 nM | GI50 (SF-268 CNS): 59.8 nM | TGI (SF-268 CNS): 13200 nM | GI50 (KM12 colon): 43.1 nM | TGI (KM12 colon): 1720 nM | GI50 (M14 melanoma): 49.3 nM | TGI (M14 melanoma): 1570 nM | GI50 (SR leukemia): 58.1 nM | TGI (SR leukemia): 67400 nM | GI50 (SK-MEL-28 melanoma): 83.9 nM | TGI (SK-MEL-28 melanoma): > 100000 nM | GI50 (HS 578T breast): 74.7 nM | TGI (HS 578T breast): > 78200 nM
